Results on three compounds are retold here after patent publication US8309540.

Like-named read-outs stand apart in the source and are kept apart here.

In the case of `COC(=O)[C@@H]1C[C@@H]2CN1C(=O)[C@H](C1CCCCC1)NC(=O)OCC(C)(C)C/C=C/c1cc3c(cc(=O)[nH]c3cc1OC)O2`, for the setting “from C=CCC(C)(C)COC(=O)N[C@H](C(=O)N1C[C@H](Oc2cc(=O)[nH]c3cc(OC)c(C=C)cc23)C[C@H]1C(=O)OC)C1CCCCC1, rcm bond, Zhan 1B, DCM, 4.96 mM, 40.0 °C, 32.0 h”, the ring closure, yield of all isomers was found to be 99.5%. Consider `CCOc1cc2c3cc(c(OC)cc3n1)/C=C/C[C@@H]1CCC[C@H]1OC(=O)N[C@@H](C1CCCC1)C(=O)N1C[C@@H](C[C@H]1C(=O)OC)O2`, for which the ring closure, yield of all isomers (from C=CC[C@@H]1CCC[C@H]1OC(=O)N[C@H](C(=O)N1C[C@H](Oc2cc(OCC)nc3cc(OC)c(C=C)cc23)C[C@H]1C(=O)OC)C1CCCC1, rcm bond, Zhan 1b, DCE, 8.78 mM, 70.0 °C, 21.0 h) was determined as 90.9%. For the setting “from CCOc1cc(O[C@H]2CN[C@H](C(=O)OC)C2)c2cc(C3CC3CC(C)(C)COC(=O)N[C@H](C(=O)O)C3CCCC3)c(OC)cc2n1, amide bond, HATU/DIEA, DCM, 7.1 mM, 18.0 h”, `CCOc1cc2c3cc(c(OC)cc3n1)[C@H]1C[C@@H]1CC(C)(C)COC(=O)N[C@@H](C1CCCC1)C(=O)N1C[C@@H](C[C@H]1C(=O)OC)O2` returned a ring closure, yield of all isomers of 65.5%.
